Measurements as given in publication PMC12396409, “Screening and hit evaluation of a microbial metabolite library against the pathogenic Plasmodium falciparum and Toxoplasma gondii parasites” (International Journal for Parasitology: Drugs and Drug …, 2025).
Like-named read-outs stand apart in the source and are kept apart here.

How the values were obtained:
[1] = test system: P. falciparum 3D7 parasites; experiment: P. falciparum growth inhibition assay, 1-cycle (72 h treatment), SYBR DNA staining (library screen at 2 μg/mL and dose-response); format: cell-based, Plasmodium falciparum; details: for activity in the screen against P. falciparum: 2 μg/mL, active = ≥80 % growth inhibition
P. falciparum = details: cited from earlier work
[2] = test system: T. gondii RH strain (RH-Tub-eYFP) tachyzoites; experiment: microbe, parasite or virus in culture; format: cell-based, Toxoplasma gondii; details: 72 h; for percent parasite growth at 2 µg/mL: Toxoplasma gondii
[3] = test system: P. falciparum 3D7 parasites; experiment: P. falciparum growth inhibition assay, 2-cycle (120 h treatment), delayed-death screen and dose-response; format: cell-based, Plasmodium falciparum
[4] = 48–72 h, ref Wilson et al., 2013, read-out: IC50 at 48–72 h
[5] = library screen at 2 μg/mL, % growth, replicate 1, read-out: Tg_72h_%Growth_Rep1
[6] = library screen at 2 μg/mL, % growth, replicate 2, read-out: Tg_72h_%Growth_Rep2
[7] = Plasmodium falciparum, 3D7; P. falciparum, 2 μg/mL, 72 h; read-out: 1) Growth (%) at 72 h
[8] = Plasmodium falciparum, 3D7, library screen at 2 μg/mL, 72 h, % growth, replicate 1, read-out: Pf_72h_%Growth_Rep1
[9] = Plasmodium falciparum, 3D7, library screen at 2 μg/mL, 72 h, % growth, replicate 2, read-out: Pf_72h_%Growth_Rep2
[10] = Plasmodium falciparum, 3D7; P. falciparum, 2 μg/mL, 120 h; read-out: 2) Growth (%) at 120 h
[11] = Plasmodium falciparum, 3D7, library screen at 2 μg/mL, 120 h, % growth, replicate 1, read-out: Pf_120h_%Growth_Rep1
[12] = Plasmodium falciparum, 3D7, library screen at 2 μg/mL, 120 h, % growth, replicate 2, read-out: Pf_120h_%Growth_Rep2
[13] = T. gondii, parasite screen 2 μg/mL, % growth, replicate 1, read-out: Tg_72h_%Growth_Rep1
[14] = T. gondii, parasite screen 2 μg/mL, % growth, replicate 2, read-out: Tg_72h_%Growth_Rep2

## Micrococcin P1
[1]; 3D7, 72 h treatment, mean ± S.D., n ≥ 3, read-out: IC50 (μM), P. falciparum
  IC50: 0.02 ± 0.004 µM
[1]; 72 h treatment, read-out: IC50, P. falciparum
  IC50: < 0.2 µM
P. falciparum; within 48 h, ref Rogers et al., 1998, read-out: IC50 in P. falciparum within 48 h
  IC50: 0.035 µM

## CCC[C@@H]1C[C@@H](C(=O)N[C@@H]([C@H]2O[C@H](SC)[C@H](O)[C@@H](O)[C@H]2O)[C@H](C)Cl)N(C)C1 [clindamycin]
P. falciparum; [4]
  IC50: ≥ 5 µM
P. falciparum; ref Wilson et al., 2013
  IC50 at more than 96 h: low nanomolar range

## COCC(=O)N[C@@H](C(=O)N1NCCC[C@H]1C(=O)N[C@@H](Cc1ccccc1)[C@@H](O)[C@H](C)C(=O)N[C@H]1CCN(C(N)=O)C1=O)[C@H](O)C(C)C [Padanamide A]
[1]; 72 h
  activity in the screen against P. falciparum: active against P. falciparum
P. falciparum; another study, ref Cheng et al., 2015, read-out: IC50 in P. falciparum
  IC50: ~0.2 µM

## spiramycin
P. falciparum; [4]
  IC50: ≥ 5 µM
P. falciparum; ref Wilson et al., 2013
  IC50 at more than 96 h: low nanomolar range

## C=C(NC(=O)C(=C)NC(=O)c1csc(C2=N[C@@H]3c4csc(n4)[C@H]4NC(=O)c5csc(n5)[C@H]([C@](C)(O)[C@@H](C)O)NC(=O)[C@H]5CSC(=N5)/C(=C/C)NC(=O)[C@H]([C@@H](C)O)NC(=O)c5csc(n5)[C@]3(CC2)NC(=O)[C@H](C)NC(=O)C(=C)NC(=O)[C@H](C)NC(=O)[C@H]([C@@H](C)CC)N[C@@H]2C=Cc3c([C@H](C)O)cc(nc3[C@H]2O)C(=O)O[C@@H]4C)n1)C(N)=O [thiostrepton, reference compound]
[2]; T. gondii, screen at 2 μg/mL, replicate 1, read-out: Tg_72h_%Growth_Rep1
  percent parasite growth at 2 µg/mL: 86.7%
[2]; T. gondii, screen at 2 μg/mL, replicate 2, read-out: Tg_72h_%Growth_Rep2
  percent parasite growth at 2 µg/mL: 93.6%
[1]; Plasmodium falciparum, 3D7, P. falciparum, 72 h, screen at 2 μg/mL, replicate 1, read-out: Pf_72h_%Growth_Rep1
  activity at 2 µg/mL: 56.7%
[1]; Plasmodium falciparum, 3D7, P. falciparum, 72 h, screen at 2 μg/mL, replicate 2, read-out: Pf_72h_%Growth_Rep2
  activity at 2 µg/mL: 65.2%
P. falciparum; ref Aminake et al., 2011, Schoof et al., 2010, read-out: IC50 in Plasmodium
  IC50: ~10 µM
[3]; Plasmodium falciparum, 3D7, P. falciparum, 120 h, screen at 2 μg/mL, replicate 1, read-out: Pf_120h_%Growth_Rep1
  activity at 2 µg/mL: 60.6%
[3]; Plasmodium falciparum, 3D7, P. falciparum, 120 h, screen at 2 μg/mL, replicate 2, read-out: Pf_120h_%Growth_Rep2
  activity at 2 µg/mL: 35.5%

## CC[C@H]1OC(=O)[C@H](C)[C@@H](O[C@H]2C[C@@](C)(OC)[C@@H](O)[C@H](C)O2)[C@H](C)[C@@H](O[C@@H]2O[C@H](C)C[C@H](N(C)C)[C@H]2O)[C@](C)(O)C[C@@H](C)CN(C)[C@H](C)[C@@H](O)[C@]1(C)O [Azithromycin, reference compound]
[2]; [5]
  percent parasite growth at 2 µg/mL: 41.8%
[2]; [6]
  percent parasite growth at 2 µg/mL: 36%
[1]; [7]
  activity at 2 µg/mL: 56.2%
[1]; [8]
  activity at 2 µg/mL: 59.3%
[1]; [9]
  activity at 2 µg/mL: 53.1%
P. falciparum; [4]
  IC50: ≥ 5 µM
P. falciparum; ref Wilson et al., 2013
  IC50 at more than 96 h: low nanomolar range
[3]; P. falciparum, growth at 72 h / growth at 120 h, 2 μg/mL
  3) Fold change (72 h/120 h): 6.4
[3]; [10]
  activity at 2 µg/mL: 8.77%
[3]; [11]
  activity at 2 µg/mL: 17.2%
[3]; [12]
  activity at 2 µg/mL: 0.35%

## C[C@H]1c2cccc(O)c2C(=O)C2=C(O)[C@]3(O)C(=O)C(C(N)=O)=C(O)[C@@H](N(C)C)[C@@H]3[C@@H](O)[C@@H]21 [Doxycycline, reference compound]
[2]; [5]
  percent parasite growth at 2 µg/mL: 41%
[2]; [6]
  percent parasite growth at 2 µg/mL: 47.5%
[1]; [7]
  activity at 2 µg/mL: 48.6%
[1]; [8]
  activity at 2 µg/mL: 55.3%
[1]; [9]
  activity at 2 µg/mL: 41.9%
P. falciparum; [4]
  IC50: ≥ 5 µM
P. falciparum; ref Wilson et al., 2013
  IC50 at more than 96 h: low nanomolar range
[3]
  3) Fold change (72 h/120 h): 6.3
[3]; [10]
  activity at 2 µg/mL: 7.68%
[3]; [11]
  activity at 2 µg/mL: 8.86%
[3]; [12]
  activity at 2 µg/mL: 6.5%

## Pladienolide B
HFF cells; fibroblasts over T. gondii, for cryptopleurine the parasite is not stated
  selectivity index: 7
HFF cells; read-out: IC50, cytotoxicity against human fibroblasts, HFF, 72 h
  IC50: 0.047 µM
[2]; 2 μg/mL, active = ≥80 % growth inhibition
  activity in the screen against T. gondii: active against T. gondii but not P. falciparum
[2]; read-out: IC50, T. gondii
  IC50: 0.0067 ± 0.0044 µM
[1]; 72 h
  activity in the screen against P. falciparum: active against T. gondii but not P. falciparum

## CC[C@H]1OC(=O)[C@H](C)[C@@H](O[C@H]2C[C@@](C)(OC)[C@@H](O)[C@H](C)O2)[C@H](C)[C@@H](O[C@@H]2O[C@H](C)C[C@H](N(C)C)[C@H]2O)[C@](C)(O)C[C@@H](C)/C(=N\OCOCCOC)[C@H](C)[C@@H](O)[C@]1(C)O [Roxithromycin, reference compound]
[2]; [13]
  percent parasite growth at 2 µg/mL: 33.7%
[2]; [14]
  percent parasite growth at 2 µg/mL: 33.3%
[1]; [7]
  activity at 2 µg/mL: 30.9%
[1]; Plasmodium falciparum, 3D7, P. falciparum, 72 h, parasite screen 2 μg/mL, % growth, replicate 1, read-out: Pf_72h_%Growth_Rep1
  activity at 2 µg/mL: 34.6%
[1]; Plasmodium falciparum, 3D7, P. falciparum, 72 h, parasite screen 2 μg/mL, % growth, replicate 2, read-out: Pf_72h_%Growth_Rep2
  activity at 2 µg/mL: 27.2%
P. falciparum; 48 h, ref Min et al., 2007, read-out: IC50 at 48 h
  IC50: ~4 µM
P. falciparum; increased treatment duration, ref Min et al., 2007, read-out: IC50 with increased treatment duration
  IC50: 1 to 2 µM
[3]
  3) Fold change (72 h/120 h): 3.6
[3]; [10]
  activity at 2 µg/mL: 8.49%
[3]; Plasmodium falciparum, 3D7, P. falciparum, 120 h, parasite screen 2 μg/mL, % growth, replicate 1, read-out: Pf_120h_%Growth_Rep1
  activity at 2 µg/mL: 18.3%
[3]; Plasmodium falciparum, 3D7, P. falciparum, 120 h, parasite screen 2 μg/mL, % growth, replicate 2, read-out: Pf_120h_%Growth_Rep2
  activity at 2 µg/mL: -1.36%

## CC1=C[C@H]2O[C@@H]3[C@H](O)[C@@H](O)[C@](C)([C@@]2(CO)[C@H](O)C1=O)[C@]31CO1 [BIA-N1920]
[2]; T. gondii, parasite screen at 2 μg/mL, % growth, replicate 1
  Tg_72h_%Growth_Rep1: 0.21%
[2]; T. gondii, parasite screen at 2 μg/mL, % growth, replicate 2
  Tg_72h_%Growth_Rep2: 0.91%
[1]; P. falciparum 3D7, 72 h, parasite screen at 2 μg/mL, % growth, replicate 1
  Pf_72h_%Growth_Rep1: 4.51%
[1]; P. falciparum 3D7, 72 h, parasite screen at 2 μg/mL, % growth, replicate 2
  Pf_72h_%Growth_Rep2: -2.70%
[3]; P. falciparum 3D7, 120 h, parasite screen at 2 μg/mL, % growth, replicate 1
  Pf_120h_%Growth_Rep1: 18.13%
[3]; P. falciparum 3D7, 120 h, parasite screen at 2 μg/mL, % growth, replicate 2
  Pf_120h_%Growth_Rep2: 5.74%

## CC[C@H]1OC(=O)[C@H](C)[C@@H](O[C@H]2C[C@@](C)(OC)[C@@H](O)[C@H](C)O2)[C@H](C)[C@@H](O[C@@H]2O[C@H](C)C[C@H](N(C)C)[C@H]2O)[C@](C)(O)C[C@@H](C)[C@@H]2N[C@@H](COCCOC)O[C@H]([C@H]2C)[C@]1(C)O [Dirithromycin]
[2]; [5]
  percent parasite growth at 2 µg/mL: 67.5%
[2]; [6]
  percent parasite growth at 2 µg/mL: 74.8%
[1]; Plasmodium falciparum, 3D7, 72 h, library screen at 2 μg/mL, 72 h, % growth, replicate 1, read-out: Pf_72h_%Growth_Rep1
  activity at 2 µg/mL: 80.4%
[1]; Plasmodium falciparum, 3D7, 72 h, library screen at 2 μg/mL, 72 h, % growth, replicate 2, read-out: Pf_72h_%Growth_Rep2
  activity at 2 µg/mL: 73.2%
[3]; Plasmodium falciparum, 3D7, 120 h, library screen at 2 μg/mL, 120 h, % growth, replicate 1, read-out: Pf_120h_%Growth_Rep1
  activity at 2 µg/mL: 62.1%
[3]; Plasmodium falciparum, 3D7, 120 h, library screen at 2 μg/mL, 120 h, % growth, replicate 2, read-out: Pf_120h_%Growth_Rep2
  activity at 2 µg/mL: 48.4%

## CC[C@H]1CCC[C@H](O[C@H]2CC[C@H](N(C)C)[C@@H](C)O2)[C@@H](C)C(=O)C2=C[C@@H]3[C@@H](C=C[C@@H]4C[C@@H](O[C@@H]5O[C@@H](C)[C@H](OC)[C@@H](OC)[C@H]5OC)C[C@@H]34)[C@@H]2CC(=O)O1 [Spinosyn A]
[2]; [13]
  percent parasite growth at 2 µg/mL: 56.8%
[2]; [14]
  percent parasite growth at 2 µg/mL: 95.1%
[1]; Plasmodium falciparum, 3D7, 72 h, P. falciparum, 72 h, parasite screen 2 μg/mL, % growth, replicate 1, read-out: Pf_72h_%Growth_Rep1
  activity at 2 µg/mL: 5.81%
[1]; Plasmodium falciparum, 3D7, 72 h, P. falciparum, 72 h, parasite screen 2 μg/mL, % growth, replicate 2, read-out: Pf_72h_%Growth_Rep2
  activity at 2 µg/mL: 3.23%
[1]; Plasmodium falciparum, 3D7, 72 h treatment, mean ± S.D., n ≥ 3, read-out: IC50 (μM), P. falciparum
  IC50: > 1 µM
[3]; Plasmodium falciparum, 3D7, 120 h, P. falciparum, 120 h, parasite screen 2 μg/mL, % growth, replicate 1, read-out: Pf_120h_%Growth_Rep1
  activity at 2 µg/mL: 0.89%
[3]; Plasmodium falciparum, 3D7, 120 h, P. falciparum, 120 h, parasite screen 2 μg/mL, % growth, replicate 2, read-out: Pf_120h_%Growth_Rep2
  activity at 2 µg/mL: -4.31%
